The source of these data is ChEMBL document CHEMBL4152288, “Medicinal Chemistry and Use of Myosin II Inhibitor ( S)-Blebbistatin and Its Derivatives” (J Med Chem, 2018).

pIC50: −log10 of the molar value. Converted amounts (≈) assume the structure as drawn.

The target in series [1] is Myosin-2 heavy chain (Dictyostelium discoideum) (UniProt P08799). The experiment in a line: Inhibition of Dictyostelium discoideum myosin 2 ATPase activity at 50 uM relative to control.
Series [2] is filed under the species Oryctolagus cuniculus. The experiment in a line: Inhibition of rabbit skeletal myosin 2 ATPase activity at 50 uM relative to control.
Series [3] is filed under the species Oryctolagus cuniculus. Kind of series: Inhibition of rabbit skeletal myosin 2 ATPase activity at 5 uM relative to control.
Series [4] can be described thus: Inhibition of human myosin 2a ATPase activity.
Series [5] is described as follows: Steady state aqueous solubility of the compound in 0.1 % DMSO buffer at 25 degC. Format: physicochemical. The conditions noted are these: aqueous buffer with 0.1% DMSO.
The nature of series [6]: Steady state aqueous solubility of the compound in 10 % DMSO buffer up to 240 mins. The class given is physicochemical. The conditions noted are these: 4 h.
Series [7] has as its system U-87 MG. The experiment in a line: Cytotoxicity against human U87 cells assessed as cell death at 200 uM after 24 hrs relative to control. The class given is functional, U-87MG ATCC.
Series [8] concerns U-87 MG. Kind of series: Cytotoxicity against human U87 cells assessed as cell death at 200 uM after 3 hrs relative to control. Format: functional, U-87MG ATCC.
Series [9] deals with DU-145. The experiment in a line: Cytotoxicity against human DU145 cells assessed as cell death at 200 uM after 24 hrs relative to control. Format: functional.
Series [10] concerns DU-145. Kind of series: Cytotoxicity against human DU145 cells assessed as cell death at 200 uM after 3 hrs relative to control. Format: functional.
The subject of series [11] is LNCaP. Kind of series: Cytotoxicity against human LNCAP cells assessed as cell death at 200 uM after 24 hrs relative to control. The class given is functional.
For series [12], the system named is LNCaP. The experiment in a line: Cytotoxicity against human LNCAP cells assessed as cell death at 200 uM after 3 hrs relative to control. Format: functional.
Series [13] is described as follows: Cytotoxicity against F11-hTERT cells (unknown origin) assessed as cell death at 200 uM after 24 hrs relative to control. Format: functional.
Series [14] is described as follows: Cytotoxicity against F11-hTERT cells (unknown origin) assessed as cell death at 200 uM after 3 hrs relative to control. The class given is functional.
Series [15] can be described thus: Cytotoxicity against human Fem-X cells assessed as cell death at 200 uM after 24 hrs relative to control. The class given is functional.
Series [16] can be described thus: Cytotoxicity against human Fem-X cells assessed as cell death at 200 uM after 3 hrs relative to control. Format: functional.
Series [17] in a line: Toxicity in Dictyostelium discoideum assessed as mortality at 20 uM after 3 days relative to control. Format: organism-based. To be noted: Dictyostelium discoideum cells, read-out: Activity.
Series [18] in a line: Toxicity in zebrafish embryo assessed as mortality at 10 uM in presence 0.4 uJ/cm2 of irradiation measured after 36 hrs relative to control. The class given is organism-based, Danio rerio. To be noted: zebrafish embryos, read-out: Activity.
The next series deals with MIA PaCa-2. The experiment in a line: Cytotoxicity against human MIAPaCa2 cells assessed as cell death at 400 uM after 24 hrs. Format: functional.
A further series relates to BXPC-3. The experiment in a line: Cytotoxicity against human BxPC3 cells assessed as cell death at 400 uM after 24 hrs. Format: functional.
In the next series the test system is Capan-2. Kind of series: Cytotoxicity against human Capan2 cells assessed as cell death at 400 uM after 24 hrs. The class given is functional.
The subject of another series is PANC-1. Kind of series: Cytotoxicity against human PANC1 cells assessed as cell death at 400 uM after 24 hrs. The class given is functional.
A further series relates to HeLa. Kind of series: Cytotoxicity against human HeLa cells assessed as cell death at 20 uM measured after 3 days by trypan blue based light microscopy relative to control.
The target of another series is Myosin-4 (Oryctolagus cuniculus, UniProt Q28641). The experiment in a line: Inhibition of rabbit skeletal muscle myosin 2.
Chain of Myosin-4 (Q28641 whole entry): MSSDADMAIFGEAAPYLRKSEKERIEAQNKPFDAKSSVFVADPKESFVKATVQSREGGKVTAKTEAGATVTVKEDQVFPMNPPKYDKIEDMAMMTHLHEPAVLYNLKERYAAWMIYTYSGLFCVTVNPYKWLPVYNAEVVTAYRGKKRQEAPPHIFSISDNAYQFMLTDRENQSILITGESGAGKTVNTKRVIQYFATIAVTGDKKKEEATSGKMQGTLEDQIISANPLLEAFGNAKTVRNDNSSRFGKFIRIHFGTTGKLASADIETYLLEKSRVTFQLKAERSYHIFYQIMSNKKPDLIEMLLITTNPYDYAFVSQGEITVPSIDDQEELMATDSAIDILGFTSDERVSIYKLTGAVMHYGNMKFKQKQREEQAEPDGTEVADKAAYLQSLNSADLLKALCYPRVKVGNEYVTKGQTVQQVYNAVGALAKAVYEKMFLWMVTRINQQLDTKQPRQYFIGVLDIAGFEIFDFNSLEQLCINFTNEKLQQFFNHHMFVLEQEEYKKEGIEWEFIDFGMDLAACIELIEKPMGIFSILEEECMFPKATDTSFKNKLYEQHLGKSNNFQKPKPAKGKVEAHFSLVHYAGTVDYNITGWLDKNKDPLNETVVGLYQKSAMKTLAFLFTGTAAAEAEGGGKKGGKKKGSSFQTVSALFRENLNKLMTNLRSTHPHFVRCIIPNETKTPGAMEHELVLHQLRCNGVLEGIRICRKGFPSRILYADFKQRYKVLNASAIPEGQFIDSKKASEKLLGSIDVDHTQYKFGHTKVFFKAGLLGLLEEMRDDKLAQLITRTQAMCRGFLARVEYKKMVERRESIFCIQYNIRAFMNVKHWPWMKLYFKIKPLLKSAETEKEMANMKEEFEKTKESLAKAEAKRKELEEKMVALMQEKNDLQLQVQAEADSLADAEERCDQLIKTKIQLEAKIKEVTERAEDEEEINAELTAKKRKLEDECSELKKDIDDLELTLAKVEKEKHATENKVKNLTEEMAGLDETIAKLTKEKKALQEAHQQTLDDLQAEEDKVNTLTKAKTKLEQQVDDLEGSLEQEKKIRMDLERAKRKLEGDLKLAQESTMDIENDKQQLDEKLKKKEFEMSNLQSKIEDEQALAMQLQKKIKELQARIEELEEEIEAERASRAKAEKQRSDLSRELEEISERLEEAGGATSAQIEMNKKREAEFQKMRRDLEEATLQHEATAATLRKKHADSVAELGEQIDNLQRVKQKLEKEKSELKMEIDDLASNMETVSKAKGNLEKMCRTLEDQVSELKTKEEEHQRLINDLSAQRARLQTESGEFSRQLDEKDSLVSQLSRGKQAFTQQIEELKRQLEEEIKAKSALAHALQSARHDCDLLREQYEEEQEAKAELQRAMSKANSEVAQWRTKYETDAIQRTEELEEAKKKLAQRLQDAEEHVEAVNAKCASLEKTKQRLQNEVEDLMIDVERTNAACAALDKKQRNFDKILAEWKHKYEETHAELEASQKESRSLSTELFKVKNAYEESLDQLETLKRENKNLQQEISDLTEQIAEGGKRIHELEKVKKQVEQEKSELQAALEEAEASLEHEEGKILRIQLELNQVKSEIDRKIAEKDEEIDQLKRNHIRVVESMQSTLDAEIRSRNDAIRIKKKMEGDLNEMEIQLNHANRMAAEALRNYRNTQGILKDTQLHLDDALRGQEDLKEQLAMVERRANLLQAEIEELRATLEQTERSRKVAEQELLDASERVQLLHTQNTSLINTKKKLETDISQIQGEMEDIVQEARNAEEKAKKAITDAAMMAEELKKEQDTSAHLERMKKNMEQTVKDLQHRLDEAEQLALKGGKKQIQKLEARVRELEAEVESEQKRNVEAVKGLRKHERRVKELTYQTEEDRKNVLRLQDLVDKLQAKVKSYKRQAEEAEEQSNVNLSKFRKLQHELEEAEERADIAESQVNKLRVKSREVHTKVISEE
The target in series [19] is T1, Myosin-2 heavy chain (Dictyostelium discoideum, UniProt P08799). Kind of series: Inhibition of Dictyostelium discoideum myosin 2 ATPase activity by NADH-coupled assay.
T1 sequence (P08799 whole entry): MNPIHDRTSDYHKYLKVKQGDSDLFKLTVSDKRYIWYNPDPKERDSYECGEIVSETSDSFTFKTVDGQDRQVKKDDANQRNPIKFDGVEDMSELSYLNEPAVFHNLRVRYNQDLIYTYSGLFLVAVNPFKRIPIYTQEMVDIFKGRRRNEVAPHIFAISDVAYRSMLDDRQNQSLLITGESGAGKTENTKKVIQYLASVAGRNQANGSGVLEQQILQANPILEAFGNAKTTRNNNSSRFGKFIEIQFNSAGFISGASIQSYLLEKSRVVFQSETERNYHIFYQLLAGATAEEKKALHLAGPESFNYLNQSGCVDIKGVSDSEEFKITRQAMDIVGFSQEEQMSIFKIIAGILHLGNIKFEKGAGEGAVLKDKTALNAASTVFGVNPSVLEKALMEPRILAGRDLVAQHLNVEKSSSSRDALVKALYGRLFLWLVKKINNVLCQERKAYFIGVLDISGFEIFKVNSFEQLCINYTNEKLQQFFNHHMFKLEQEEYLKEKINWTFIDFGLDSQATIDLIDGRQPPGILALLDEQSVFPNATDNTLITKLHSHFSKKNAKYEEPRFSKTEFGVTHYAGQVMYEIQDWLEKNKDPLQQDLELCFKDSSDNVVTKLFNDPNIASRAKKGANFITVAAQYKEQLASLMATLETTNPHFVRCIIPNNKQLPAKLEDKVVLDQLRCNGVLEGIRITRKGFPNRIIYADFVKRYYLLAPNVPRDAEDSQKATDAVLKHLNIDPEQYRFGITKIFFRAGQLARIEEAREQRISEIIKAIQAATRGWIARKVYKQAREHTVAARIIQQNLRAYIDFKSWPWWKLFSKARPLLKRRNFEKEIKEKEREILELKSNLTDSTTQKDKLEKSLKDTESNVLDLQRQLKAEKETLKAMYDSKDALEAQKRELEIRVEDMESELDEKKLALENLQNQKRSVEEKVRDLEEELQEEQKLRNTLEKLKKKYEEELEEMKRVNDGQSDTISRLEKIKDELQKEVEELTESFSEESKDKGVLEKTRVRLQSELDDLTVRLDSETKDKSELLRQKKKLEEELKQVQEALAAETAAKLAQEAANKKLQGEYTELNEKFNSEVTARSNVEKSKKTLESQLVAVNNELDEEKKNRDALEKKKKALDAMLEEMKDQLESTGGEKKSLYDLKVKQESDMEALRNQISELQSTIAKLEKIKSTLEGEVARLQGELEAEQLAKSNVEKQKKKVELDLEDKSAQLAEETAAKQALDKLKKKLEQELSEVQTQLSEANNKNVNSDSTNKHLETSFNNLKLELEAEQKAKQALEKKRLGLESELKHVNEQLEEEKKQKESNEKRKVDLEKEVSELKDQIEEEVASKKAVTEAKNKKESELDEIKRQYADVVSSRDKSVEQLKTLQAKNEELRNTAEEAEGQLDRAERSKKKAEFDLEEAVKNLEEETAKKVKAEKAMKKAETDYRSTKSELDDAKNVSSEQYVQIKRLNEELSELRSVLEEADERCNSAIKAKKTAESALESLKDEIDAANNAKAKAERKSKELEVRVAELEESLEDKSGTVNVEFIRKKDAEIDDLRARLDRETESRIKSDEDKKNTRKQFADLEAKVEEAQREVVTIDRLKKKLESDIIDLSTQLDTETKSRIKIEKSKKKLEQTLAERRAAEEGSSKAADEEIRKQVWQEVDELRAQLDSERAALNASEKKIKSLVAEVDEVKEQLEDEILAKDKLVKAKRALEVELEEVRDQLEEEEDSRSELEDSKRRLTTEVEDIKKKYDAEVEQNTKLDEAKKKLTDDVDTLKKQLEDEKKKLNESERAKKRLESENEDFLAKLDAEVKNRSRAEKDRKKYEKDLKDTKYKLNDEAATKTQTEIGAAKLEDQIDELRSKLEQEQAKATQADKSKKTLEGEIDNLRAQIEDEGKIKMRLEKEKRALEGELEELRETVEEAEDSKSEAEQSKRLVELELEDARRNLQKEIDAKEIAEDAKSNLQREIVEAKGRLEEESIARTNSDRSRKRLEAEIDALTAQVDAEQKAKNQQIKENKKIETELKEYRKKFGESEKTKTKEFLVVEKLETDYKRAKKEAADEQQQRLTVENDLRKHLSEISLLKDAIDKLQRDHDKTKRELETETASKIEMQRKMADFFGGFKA
Series [20] addresses T1, Myosin-2 heavy chain. The experiment in a line: Inhibition of Dictyostelium discoideum myosin 2 ATPase activity.
Series [21] has as its target Myosin-2 heavy chain, non muscle (Acanthamoeba castellanii, UniProt P05659). Kind of series: Inhibition of dephosphorylated Acanthamoeba non muscle myosin 2 by NADH-coupled spectrophotometric analysis.
Another series concerns the target Myosin-9 (Homo sapiens, UniProt P35579). The experiment in a line: Inhibition of human non-muscle myosin 2a.
Another series concerns the target Myosin-10 (Homo sapiens, UniProt P35580). The experiment in a line: Inhibition of human non-muscle myosin 2b.
The target of series [22] is Nonmuscle myosin heavy chain (Gallus gallus, UniProt Q789A4). Kind of series: Inhibition of chicken non-muscle myosin 2b by NADH-coupled spectrophotometric analysis.
In the next series the target is Myosin-14 (Mus musculus, UniProt Q6URW6). Kind of series: Inhibition of mouse non-muscle myosin 2c.
The nature of series [23]: Inhibition of chicken smooth muscle myosin 2 ATPase activity preincubated for 60 mins followed by ATP addition measured after 10 mins by malachite green based assay.
Series [24] is described as follows: Inhibition of bay scallop striated muscle myosin heavy chain.
The next series has as its target Myosin-7 (Sus scrofa, UniProt P79293). Kind of series: Inhibition of pig beta cardiac myosin 2 by NADH-coupled spectrophotometric analysis.
Series [25] addresses Myosin heavy chain, non-muscle (Drosophila melanogaster, UniProt Q99323). The experiment in a line: Inhibition of fruit fly non-muscle myosin 2.
A further series concerns the target Unconventional myosin-Ib (Rattus norvegicus, UniProt Q05096). The experiment in a line: Inhibition of rat myosin 1b by NADH-coupled spectrophotometric analysis.
Another series concerns the target Myosin IC heavy chain (Acanthamoeba castellanii, UniProt P10569). Kind of series: Inhibition of dephosphorylated Acanthamoeba […] myosin 1c by NADH-coupled spectrophotometric analysis.
Another series addresses Unconventional myosin-Va (Mus musculus, UniProt Q99104). Kind of series: Inhibition of mouse myosin 5a by NADH-coupled spectrophotometric analysis.
The target of the next series is Unconventional myosin-X (Bos taurus, UniProt P79114). The experiment in a line: Inhibition of bovine myosin x by NADH-coupled spectrophotometric analysis.
The next series deals with Unconventional myosin-XV (Homo sapiens, UniProt Q9UKN7). Kind of series: Inhibition of human myosin 15 by NADH-coupled spectrophotometric analysis.
The nature of series [26]: Inhibition of Bos taurus smooth muscle myosin 2 ATPase activity.
The nature of series [27]: Inhibition of Meleagris gallopavo smooth muscle myosin 2 ATPase activity.

Chain of Myosin-2 heavy chain (Dictyostelium discoideum) (P08799 whole entry): as above

As to `Cc1cccc2c1N=C1N(c3ccccc3)CC[C@@]1(O)C2=O`, the inhibition was 35% in series [1], 72% in the series filed under Oryctolagus cuniculus [2] and 31% in the series listed under Oryctolagus cuniculus [3].
For `O=C1c2ccc([N+](=O)[O-])cc2N=C2N(c3ccccc3)CC[C@@]12O`, the pIC50 in series [4] is 4.55.
Take `Cc1cccc2c1C(=O)[C@]1(O)CCN(c3ccccc3)C1=N2`: the inhibition was determined as 88% in [1], 95% in the series listed under Oryctolagus cuniculus [2] and 86% in the series filed under Oryctolagus cuniculus [3].
`O=C1c2ccccc2N=C2N(c3ccccc3)CC[C@@]12O`: the results for the inhibition (in series [1]; in the series listed under Oryctolagus cuniculus [2]; in the series listed under Oryctolagus cuniculus [3]) were 88%, 95% and 84%, respectively.
In the case of `Cc1ccc2c(c1)C(=O)[C@]1(O)CCN(c3ccccc3)C1=N2`, the solubility in [5] was 7 to 11 µM (≈ 2.05 to 3.22 µg/mL); in series [6], 80 µM (≈ 23.4 µg/mL). Further, the Activity was found to be 65% in the series on U-87 MG [7]; 40% with U-87 MG [8]; 90% in the series with DU-145 [9]; 30% with DU-145 [10]; 96% in the series on LNCaP [11]; 10% in the series on LNCaP [12]. Besides, the Activity was found to be 85% in series [13]; 30% in series [14]; 100% in series [15]; 30% in [16]; 20% in the series on MIA PaCa-2; 25% with BXPC-3. The Activity came out at 45% with Capan-2, 0% in the series with PANC-1 and 90% in the series on HeLa. Also, the mortality at 72 h, 20 µM in [17] is 0%. Moreover, the mortality at 36 h, 10 µM in series [18] was determined as 100%.
`Cc1ccc2c(c1)N=C1N(c3ccccc3)CC[C@@]1(O)C2=O`: the inhibition in series [1] stood at 90%; in the series listed under Oryctolagus cuniculus [2], 94%; in the series listed under Oryctolagus cuniculus [3], 86%.
Turning to `Cc1ccc2c(c1)C(=O)[C@]1(O)CCN(c3ccc([N+](=O)[O-])cc3)C1=N2`, the pIC50 against Myosin-4 is 6.40; against Myosin-2 heavy chain [19], 5.64.
In turn, `Cc1ccc2c(c1)C(=O)[C@]1(O)CCN(c3ccc(Cl)cc3)C1=N2` had a pIC50 on Myosin-2 heavy chain [20] of 5.72.
Regarding `Cc1ccc2c(c1)C(=O)[C@]1(O)CCN(c3ccc(N=[N+]=[N-])cc3)C1=N2`, the pIC50 on Myosin-2 heavy chain [19] was 5.28.
Take `Cc1ccc2c(c1)C(=O)C1(O)CCN(c3ccccc3)C1=N2` (racemic): the pIC50 in series [21] was 4.08; on Myosin-9, 4.85 to 5.40; at Myosin-10, 5.34; in series [22] it was 5.74; at Myosin-14 it was 5.49; in [23] it was 4.63 to 5.26. The pIC50 in series [24] is 5.64; on Myosin-4, 5.36 to 6.66; at Myosin-7 it was 5.92; in series [25], below 3.70; on Unconventional myosin-Ib it was below 3.82; against Myosin IC heavy chain, below 3.82. Moreover, the pIC50 against Unconventional myosin-Va was below 3.82; against Unconventional myosin-X it was below 3.82; at Unconventional myosin-XV, below 4.00; in series [26], 4.96 to 5.37; in [27], 4.10.

Broadly, the inhibition is the change of the read-out against control, counted positive when it falls. A high value points to a strong effect. The pIC50 is the IC50 on a negative log10 scale, so that one unit is a factor of ten. Read a low pIC50 as a large IC50. In general, solubility refers to how much of the substance goes into solution per volume.
